This note sets out measurements from patent publication US7893074B2, “2, 4-pyrimidinediamines useful in the treatment of neoplastic diseases, inflammatory and immune system disorders” (Novartis AG, priority 2003, dated 2011).

Structures are written as SMILES.

Test [1] concerns the target GST-ALK protein tyrosine kinase (Homo sapiens, UniProt Q9UM73). As to the kind of experiment: In vitro enzyme assay using GST-ALK protein tyrosine kinase (filter binding assay). The class given is biochemical. To be noted: b80; assay not specified further; lower end printed as <0.5; read-out: IC50, inhibition of tyrosine kinase activity of anaplastic lymphoma kinase (ALK). On the procedure: Assays are incubated for 10 min at ambient temperature. […] Following washing (0.5% H3PO4), plates are counted in a liquid scintillation counter. IC50 values are calculated by linear regression analysis of the percentage inhibition.

A further test has as its target FAK (Mus musculus, UniProt P34152). As to the kind of experiment: Phos IC50 (phosphorylation). The class given is cell-based.
The subject of test [2] is Mouse mammary carcinoma 4T1 cells. The experiment in a line: Anchorage-independent tumor cell growth assay. Format: cell-based. To be noted: Mus musculus, 4T1. On the procedure:
Cells are cultured for 2 h and inhibitors are added at various concentrations in a final concentration of 0.1% DMSO. After 48 h, cell growth is assayed with the cell counting kit-8 (Wako Pure Chemical), which uses a water soluble tetrazolium salt WST8. Twenty μL of the reagent is added into each well and cells are further cultured for 2 h. The optical density is measured at 450 nm.

The next test addresses IGF-IR (Homo sapiens, UniProt P08069). As to the kind of experiment: Cellular Capture ELISA of IGF-I induced autophosphorylation of the IGF-IR. To be noted: read-out: IGF-1R IC50. Format: cell-based. On the procedure:
In this assay the activity of the compounds of the invention against Insulin-like growth factor I (IGF-I) induced autophosphorylation of the IGF-IR is determined.

Test [3] deals with Focal Adhesion Kinase (FAK) (Homo sapiens, UniProt Q05397). As to the kind of experiment: FAK assay system (Focal Adhesion Kinase inhibition). Format: biochemical. To be noted: read-out: FAK IC50.
Test [4] deals with human NPM-ALK overexpressing murine BaF3 cells. The experiment in a line: Growth inhibition of BaF3-NPM-ALK cells (Yopro staining). The class given is cell-based. To be noted: Mus musculus, 48 h; two days incubation. An excerpt: The expression of NPM-ALK is achieved by transfecting the BaF3 cell line with an expression vector pCIneo™ (Promega Corp., Madison Wis., USA) coding for NPM-ALK and subsequent selection of G418 resistant cells. Non-transfected BaF3 cells depend on IL-3 for cell survival. In contrast NPM-ALK expressing BaF3 cells (named BaF3-NPM-ALK hereinafter) can proliferate in the absence of IL-3 because they obtain proliferative signal through NPM-ALK kinase. Putative inhibitors of the NPM-ALK kinase therefore abolish the growth signal and result in antiproliferative activity. […] The inhibitory activity of the compounds of formula I is determined, briefly, as follows: BaF3-NPM-ALK cells (15,000/microtitre plate well) are transferred to 96-well microtitre plates. […] The growth of the BaF3-NPM-ALK cells is measured by means of Yopro™ staining [T Idziorek et al. J. Immunol. […] Cell lysis is completed within 60 min at room temperature and total amount of Yopro bound to DNA is determined by measurement using the Cytofluor II 96-well reader (PerSeptive Biosystems) with the following settings: Excitation (nm) 485/20 and Emission (nm) 530/25. IC50 values are determined by a computer-aided system using the formula: IC50=[(ABStest−ABSstart)/(ABScontrol−ABSstart)]×100. […]

The subject of the next test is T Cell. As to the kind of experiment: T Cell Migration. The class given is cell-based. To be noted: T-cell.

Chain of Focal Adhesion Kinase (FAK) (Q05397 384-706): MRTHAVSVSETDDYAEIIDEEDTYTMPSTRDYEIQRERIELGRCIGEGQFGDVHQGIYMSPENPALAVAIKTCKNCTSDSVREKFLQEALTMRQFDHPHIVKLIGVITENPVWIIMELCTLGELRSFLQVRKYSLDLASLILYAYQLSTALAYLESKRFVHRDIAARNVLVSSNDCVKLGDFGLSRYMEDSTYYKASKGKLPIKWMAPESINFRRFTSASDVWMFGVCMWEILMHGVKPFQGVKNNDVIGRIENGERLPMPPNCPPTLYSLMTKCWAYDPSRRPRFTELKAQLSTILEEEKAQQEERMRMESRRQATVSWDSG
Chain of FAK (P34152 2-1052): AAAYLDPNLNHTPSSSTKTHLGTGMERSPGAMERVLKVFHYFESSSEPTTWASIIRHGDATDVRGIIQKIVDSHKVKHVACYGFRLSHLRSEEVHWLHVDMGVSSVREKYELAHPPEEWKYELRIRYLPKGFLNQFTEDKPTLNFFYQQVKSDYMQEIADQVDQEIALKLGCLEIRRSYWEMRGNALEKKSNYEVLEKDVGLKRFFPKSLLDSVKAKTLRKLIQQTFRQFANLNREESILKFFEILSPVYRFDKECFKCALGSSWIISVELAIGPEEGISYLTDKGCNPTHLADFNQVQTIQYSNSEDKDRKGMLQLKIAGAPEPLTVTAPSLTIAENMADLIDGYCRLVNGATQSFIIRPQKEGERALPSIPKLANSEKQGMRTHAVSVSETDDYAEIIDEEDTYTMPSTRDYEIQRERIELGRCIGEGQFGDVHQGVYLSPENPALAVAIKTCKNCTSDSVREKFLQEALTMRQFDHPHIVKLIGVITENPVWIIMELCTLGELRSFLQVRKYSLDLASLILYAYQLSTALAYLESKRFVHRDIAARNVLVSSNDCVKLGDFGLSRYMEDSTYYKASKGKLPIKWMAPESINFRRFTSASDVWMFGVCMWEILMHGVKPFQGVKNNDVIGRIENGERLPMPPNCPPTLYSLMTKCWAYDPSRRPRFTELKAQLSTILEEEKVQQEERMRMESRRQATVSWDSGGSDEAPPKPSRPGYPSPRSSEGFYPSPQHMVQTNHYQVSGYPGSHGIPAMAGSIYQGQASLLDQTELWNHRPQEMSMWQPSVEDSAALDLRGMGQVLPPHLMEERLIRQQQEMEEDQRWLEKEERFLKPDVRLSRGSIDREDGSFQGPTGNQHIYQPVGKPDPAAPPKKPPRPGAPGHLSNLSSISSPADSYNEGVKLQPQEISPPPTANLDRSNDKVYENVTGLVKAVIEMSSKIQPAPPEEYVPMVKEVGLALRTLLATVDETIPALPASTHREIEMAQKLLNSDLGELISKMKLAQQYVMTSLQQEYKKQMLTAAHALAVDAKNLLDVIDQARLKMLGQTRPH
Chain of IGF-IR (P08069 31-1367): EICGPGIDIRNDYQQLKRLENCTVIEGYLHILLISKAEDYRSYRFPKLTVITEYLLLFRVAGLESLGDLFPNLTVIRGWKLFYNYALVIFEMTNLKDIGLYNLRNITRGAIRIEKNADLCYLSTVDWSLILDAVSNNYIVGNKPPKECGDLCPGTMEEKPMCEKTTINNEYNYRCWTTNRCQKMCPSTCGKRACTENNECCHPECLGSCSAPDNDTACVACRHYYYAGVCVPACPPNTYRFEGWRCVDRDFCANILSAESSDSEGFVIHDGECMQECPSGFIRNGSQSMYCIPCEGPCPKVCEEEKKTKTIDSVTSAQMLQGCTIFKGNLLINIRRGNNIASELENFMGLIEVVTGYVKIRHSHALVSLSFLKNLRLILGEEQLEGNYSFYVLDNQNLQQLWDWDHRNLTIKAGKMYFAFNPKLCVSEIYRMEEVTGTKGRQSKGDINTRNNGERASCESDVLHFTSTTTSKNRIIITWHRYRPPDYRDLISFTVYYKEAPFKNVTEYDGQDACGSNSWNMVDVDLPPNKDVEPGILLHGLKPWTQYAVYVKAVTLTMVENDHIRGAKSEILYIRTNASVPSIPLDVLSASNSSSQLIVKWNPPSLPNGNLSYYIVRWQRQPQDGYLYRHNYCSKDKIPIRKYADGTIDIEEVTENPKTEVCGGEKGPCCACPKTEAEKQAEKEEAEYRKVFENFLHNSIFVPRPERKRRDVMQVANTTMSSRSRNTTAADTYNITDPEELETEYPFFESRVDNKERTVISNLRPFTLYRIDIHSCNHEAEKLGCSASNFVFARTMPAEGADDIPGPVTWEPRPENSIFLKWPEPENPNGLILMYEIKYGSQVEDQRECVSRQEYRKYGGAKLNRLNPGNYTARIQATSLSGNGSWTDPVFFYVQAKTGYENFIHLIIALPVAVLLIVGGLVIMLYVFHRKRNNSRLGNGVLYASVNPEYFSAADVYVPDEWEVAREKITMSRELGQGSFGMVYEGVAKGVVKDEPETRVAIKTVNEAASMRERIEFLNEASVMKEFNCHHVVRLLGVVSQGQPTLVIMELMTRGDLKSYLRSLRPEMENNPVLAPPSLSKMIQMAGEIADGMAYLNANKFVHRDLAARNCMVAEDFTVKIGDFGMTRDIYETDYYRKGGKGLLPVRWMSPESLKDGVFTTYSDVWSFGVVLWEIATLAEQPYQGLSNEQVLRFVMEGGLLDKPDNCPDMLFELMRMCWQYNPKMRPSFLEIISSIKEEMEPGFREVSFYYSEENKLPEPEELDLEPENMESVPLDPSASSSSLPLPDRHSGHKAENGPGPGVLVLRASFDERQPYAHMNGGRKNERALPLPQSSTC
Chain of GST-ALK protein tyrosine kinase (Q9UM73 1116-1392): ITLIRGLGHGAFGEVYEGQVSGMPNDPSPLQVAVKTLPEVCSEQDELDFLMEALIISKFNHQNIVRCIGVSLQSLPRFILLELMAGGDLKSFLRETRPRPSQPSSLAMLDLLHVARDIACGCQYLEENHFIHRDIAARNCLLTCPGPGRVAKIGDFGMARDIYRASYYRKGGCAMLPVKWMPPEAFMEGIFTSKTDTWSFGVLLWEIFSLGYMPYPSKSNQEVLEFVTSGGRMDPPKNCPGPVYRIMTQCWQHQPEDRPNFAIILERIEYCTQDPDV

Take `CNC(=O)c1ccccc1Nc1nc(Nc2ccc(N3CCN4CCOC[C@H]4C3)cc2OC)ncc1Cl` [Example 7-15]: the IC50 in test [1] was 0.5 to 200 nM; against FAK it was 60 nM; in test [2], 190 nM; at IGF-IR, 260 nM; in test [3], 4.5 nM.

The compound `CNC(=O)c1ccccc1Nc1nc(Nc2ccc(N3CCOCC3)cc2OC)ncc1Cl` [2-[5-chloro-2-(2-methoxy-4-morpholin-4-yl-phenylamino)-pyrimidin-4-ylamino]-N-methyl-benzamide] gave an IC50 in test [4] of 97 nM.

Consider `CCCS(=O)(=O)c1ccccc1Nc1nc(Nc2ccc(N3CCC(N4CCCCC4)CC3)cc2OC)ncc1Cl` [Example 26-3], for which the concentration for half-maximal inhibition (IC50) was 0.5 to 200 nM in test [1]; 100 nM against FAK; 130 nM in test [2]; 230 nM at IGF-IR; 1.4 nM in test [3].

In the case of `CNS(=O)(=O)c1ccccc1Nc1nc(Nc2cc(OCCN3CCOCC3)ccc2OC)ncc1Br` [Example 3-35], the IC50 on FAK is 20 nM; with T Cell, 800 nM; in test [2] it was 170 nM; at IGF-IR, 3550 nM; in test [3], 13 nM.

One may read the IC50 as the midpoint of a concentration-inhibition curve.
